Data as given in patent US9611277B2 (Janssen Pharmaceutica NV, priority 2013, dated 2017).
pKi: −log10 of the molar value.

Assays:
human orexin 1 receptor = human orexin 1 receptor (Homo sapiens, UniProt O43613); assay: Human orexin 1 receptor radioligand binding; conditions: human orexin 1 receptor; averages of 2-20 runs; read-out: hOX1 Ki
Experimental: Data are analyzed using pc-Sandy macro and graphed on Graphpad Prism 5. For analysis, each concentration point is averaged from triplicate values and the averaged values are plotted on Graphpad Prism. The IC50 was determined by applying the following equation (GraphPad Prism 5.0, SanDiego) for one site competition where X=log (concentration) and Y=specific binding. Top denotes the total [^3H]-(1-(5-(2-fluoro-phenyl)-2-methyl-thiazol-4-yl)-1-((S)-2-(5-phenyl-(1,3,4)oxadiazol-2-ylmethyl)-pyrrolidin-1-yl)-methanone) binding, bottom denotes the nonspecific [^3H]-(1-(5-(2-fluoro-phenyl)-2-methyl-thiazol-4-yl)-1-((S)-2-(5-phenyl-(1,3,4)oxadiazol-2-ylmethyl)-pyrrolidin-1-yl)-methanone) binding. Graphpad Prism calculates Ki value from IC50 and the pre-determined Kd values for [^3H]-(1-(5-(2-fluoro-phenyl)-2-methyl-thiazol-4-yl)-1-((S)-2-(5-phenyl-(1,3,4)oxadiazol-2-ylmethyl)-pyrrolidin-1-yl)-methanone) and [3H]-EMPA. The Ki for each compound is then uploaded into 3DX. Each run comprises individual compounds in triplicate. The data in Table 1 and Table 2 represent averages from between 2-20 runs
Rat and Human Orexin 1 Receptor Radioligand Binding Studies
After centrifugation (2K×G, 5 min at 4° C.), the supernatant was aspirated and the pellets frozen and stored at −80° C. […] Each cell pellet from a 15 cm plate was resuspended in 10 mL, stored on ice, and homogenized for 45 sec prior to addition to the reactions. […] The final concentration of DMSO in the reactions is equal to or less than 0.1%. Total and nonspecific binding was determined in the absence and presence of 10 μM almorexant. The total volume of each reaction is 200 μL (20 μL of diluted compounds, 80 μL of [^3H]-(1-(5-(2-fluoro-phenyl)-2-methyl-thiazol-4-yl)-1-((S)-2-(5-phenyl-(1,3,4)oxadiazol-2-ylmethyl)-pyrrolidin-1-yl)-methanone) diluted in PBS and 100 μL of the cell suspension). […] The plates were washed 3 times by aspirating 30 ml PBS through the plates. Plates were dried in 55° C. oven for 60 min, scintillation fluid was added, and the radioactivity was counted on a Topcount (Packard).

human orexin 2 receptor = human orexin 2 receptor (Homo sapiens (Human), UniProt O43614); assay: Human orexin 2 receptor radioligand binding; conditions: human orexin 2 receptor; averages of 2-20 runs; read-out: hOX2 Ki
Sequence of human orexin 2 receptor (O43614 whole entry): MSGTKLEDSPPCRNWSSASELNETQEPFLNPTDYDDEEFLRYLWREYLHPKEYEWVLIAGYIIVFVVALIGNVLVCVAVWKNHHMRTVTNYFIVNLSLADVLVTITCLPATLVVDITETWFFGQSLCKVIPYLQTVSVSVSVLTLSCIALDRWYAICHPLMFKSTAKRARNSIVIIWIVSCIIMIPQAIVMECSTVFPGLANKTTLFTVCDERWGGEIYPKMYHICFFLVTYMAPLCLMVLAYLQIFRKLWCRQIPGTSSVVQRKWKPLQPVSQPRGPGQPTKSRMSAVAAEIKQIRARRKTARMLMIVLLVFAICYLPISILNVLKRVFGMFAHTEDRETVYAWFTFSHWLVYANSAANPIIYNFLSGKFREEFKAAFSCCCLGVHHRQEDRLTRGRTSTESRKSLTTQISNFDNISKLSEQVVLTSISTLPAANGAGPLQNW
Summary of the method: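 Ki derived from one-site competition IC50 using predetermined Kd of [3H]-EMPA, triplicate points, 2-20 runs averaged. Binding done on homogenized HEK293 cells stably expressing human orexin 2 receptor, DMSO ≤0.1%, with 10 μM almorexant defining nonspecific binding; filtered, washed, scintillation counted.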

rat orexin 1 receptor = rat orexin 1 receptor (Rattus norvegicus, UniProt P56718); assay: Rat orexin 1 receptor radioligand binding; conditions: rat orexin 1 receptor; averages of 2-20 runs; read-out: rOX1 Ki
Summary of the method: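 Ki values derive from one-site competition IC50s corrected with the radioligand's predetermined Kd, triplicates per run, averaged over 2-20 runs. Cell homogenates (rat or human OX1R) compete against [^3H]-thiazolyl-oxadiazolyl-pyrrolidine methanone in PBS; 10 μM almorexant sets nonspecific binding; scintillation counting after washing.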

For `Cc1cnc(-n2nccn2)c(C(=O)N2C[C@H]3C[C@@H](Oc4ccc(C(F)(F)F)cn4)[C@@H]2C3)c1` [Example 88, (5-methyl-2-(2H-1,2,3-triazol-2-yl)pyridin-3-yl)((1S,4R,6R)-6-((5-(trifluoromethyl)pyridin-2-yl)oxy)-2-azabicyclo[2.2.1]heptan-2-yl)methanone], the pKi (human orexin 1 receptor) was 7.44, the pKi (human orexin 2 receptor) was under 5.00 and the pKi (rat orexin 1 receptor) was 7.35.
Compound `O=C(c1ccccc1-c1ncc(F)cn1)N1C[C@H]2C[C@@H](Oc3ccc(C(F)(F)F)cn3)[C@@H]1C2` [Example 89, (2-(5-fluoropyrimidin-2-yl)phenyl)((1S,4R,6R)-6-((5-(trifluoromethyl)pyridin-2-yl)oxy)-2-azabicyclo[2.2.1]heptan-2-yl)methanone] has a pKi (human orexin 1 receptor) of 8.10, a pKi (human orexin 2 receptor) of 5.96 and a pKi (rat orexin 1 receptor) of 7.74.
In the case of `O=C(c1cccc(F)c1-c1ncc(F)cn1)N1C[C@H]2C[C@@H](Oc3ccc(C(F)(F)F)cn3)[C@@H]1C2` [Example 90, (3-fluoro-2-(5-fluoropyrimidin-2-yl)phenyl)((1S,4R,6R)-6-((5-(trifluoromethyl)pyridin-2-yl)oxy)-2-azabicyclo[2.2.1]heptan-2-yl)methanone], the pKi (human orexin 1 receptor) was 7.72, the pKi (human orexin 2 receptor) was 5.67 and the pKi (rat orexin 1 receptor) was 7.82.
In the case of `Cc1cccc(C(=O)N2C[C@H]3C[C@@H](Oc4ccc(C(F)(F)F)cn4)[C@@H]2C3)c1-c1ncc(F)cn1` [Example 91, (2-(5-fluoropyrimidin-2-yl)-3-methylphenyl)((1S,4R,6R)-6-((5-(trifluoromethyl)pyridin-2-yl)oxy)-2-azabicyclo[2.2.1]heptan-2-yl)methanone], the pKi (human orexin 1 receptor) was 8.22, the pKi (human orexin 2 receptor) was 6.48 and the pKi (rat orexin 1 receptor) was 8.10.
`Cc1ccc(-c2ncccn2)c(C(=O)N2C[C@H]3C[C@@H](Oc4ccc(C(F)(F)F)cn4)[C@@H]2C3)n1` [Example 92, (6-methyl-3-(pyrimidin-2-yl)pyridin-2-yl)((1S,4R,6R)-6-((5-(trifluoromethyl)pyridin-2-yl)oxy)-2-azabicyclo[2.2.1]heptan-2-yl)methanone] showed a pKi (human orexin 1 receptor) of 7.72, a pKi (human orexin 2 receptor) of 6.44 and a pKi (rat orexin 1 receptor) of 7.89.
`O=C(c1nccnc1-c1ccccc1)N1C[C@H]2C[C@@H](Oc3ccc(C(F)(F)F)cn3)[C@@H]1C2` [Example 93, (3-phenylpyrazin-2-yl)((1S,4R,6R)-6-((5-(trifluoromethyl)pyridin-2-yl)oxy)-2-azabicyclo[2.2.1]heptan-2-yl)methanone] showed a pKi (human orexin 1 receptor) of 7.12, a pKi (human orexin 2 receptor) of 5.51 and a pKi (rat orexin 1 receptor) of 6.90.
Compound `O=C(c1cccc(F)c1-c1ncccn1)N1C[C@H]2C[C@@H](Oc3cccc(C(F)(F)F)n3)[C@@H]1C2` [Example 94, (3-fluoro-2-(pyrimidin-2-yl)phenyl)((1S,4R,6R)-6-((6-(trifluoromethyl)pyridin-2-yl)oxy)-2-azabicyclo[2.2.1]heptan-2-yl)methanone] has a pKi (human orexin 1 receptor) of 7.52, a pKi (human orexin 2 receptor) of 6.07 and a pKi (rat orexin 1 receptor) of 7.46.
For `O=C(c1cccc(F)c1-c1ncccn1)N1C[C@H]2C[C@@H](Oc3cc(C(F)(F)F)ccn3)[C@@H]1C2` [Example 95, (3-fluoro-2-(pyrimidin-2-yl)phenyl)((1S,4R,6R)-6-((4-(trifluoromethyl)pyridin-2-yl)oxy)-2-azabicyclo[2.2.1]heptan-2-yl)methanone], the pKi (human orexin 1 receptor) was 7.43, the pKi (human orexin 2 receptor) was 6.86 and the pKi (rat orexin 1 receptor) was 7.54.
Work on `O=C(c1ccccc1-n1nccn1)N1C[C@H]2C[C@@H](Oc3ncc(C(F)(F)F)cc3F)[C@@H]1C2` [Example 97, (2-(2H-1,2,3-triazol-2-yl)phenyl)((1S,4R,6R)-6-((3-fluoro-5-(trifluoromethyl)pyridin-2-yl)oxy)-2-azabicyclo[2.2.1]heptan-2-yl)methanone] yielded a pKi (human orexin 1 receptor) of 7.82, a pKi (human orexin 2 receptor) of 5.96 and a pKi (rat orexin 1 receptor) of 7.68.
With `Cc1ccc(-n2nccn2)c(C(=O)N2CC3CC(Oc4ncc(C(F)(F)F)cc4F)C2C3)n1` [Example 98, (1S,4R,6R)-6-((3-fluoro-5-(trifluoromethyl)pyridin-2-yl)oxy)-2-azabicyclo[2.2.1]heptan-2-yl)(6-methyl-3-(2H-1,2,3-triazol-2-yl)pyridin-2-yl)methanone] the pKi (human orexin 1 receptor) was 7.55, the pKi (human orexin 2 receptor) was 5.92 and the pKi (rat orexin 1 receptor) was 7.43.
`O=C(c1ccccc1-c1ncccn1)N1C[C@H]2C[C@@H](Oc3ncc(C(F)(F)F)cc3F)[C@@H]1C2` [Example 99, ((1S,4R,6R)-6-((3-fluoro-5-(trifluoromethyl)pyridin-2-yl)oxy)-2-azabicyclo[2.2.1]heptan-2-yl)(2-(pyrimidin-2-yl)phenyl)methanone] showed a pKi (human orexin 1 receptor) of 8.00, a pKi (human orexin 2 receptor) of 6.14 and a pKi (rat orexin 1 receptor) of 7.96.
Compound `O=C(c1cccc(F)c1-c1ncccn1)N1C[C@H]2C[C@@H](Oc3ncc(C(F)(F)F)cc3F)[C@@H]1C2` [Example 100, (3-fluoro-2-(pyrimidin-2-yl)phenyl)((1S,4R,6R)-6-((3-fluoro-5-(trifluoromethyl)pyridin-2-yl)oxy)-2-azabicyclo[2.2.1]heptan-2-yl)methanone] has a pKi (human orexin 1 receptor) of 7.92, a pKi (human orexin 2 receptor) of 5.80 and a pKi (rat orexin 1 receptor) of 7.89.
Work on `Cc1ccc(O[C@@H]2C[C@H]3C[C@@H]2N(C(=O)c2cccc(F)c2-c2ncccn2)C3)nc1` [Example 101, (3-fluoro-2-(pyrimidin-2-yl)phenyl)((1S,4R,6R)-6-((5-methylpyridin-2-yl)oxy)-2-azabicyclo[2.2.1]heptan-2-yl)methanone] yielded a pKi (human orexin 1 receptor) of 7.96, a pKi (human orexin 2 receptor) of 6.15 and a pKi (rat orexin 1 receptor) of 7.59.
`Cc1ccc(C(=O)N2C[C@H]3C[C@@H](Oc4ccc(Br)cn4)[C@@H]2C3)c(-n2nccn2)n1` [Example 105, ((1S,4R,6R)-6-((5-bromopyridin-2-yl)oxy)-2-azabicyclo[2.2.1]heptan-2-yl)(6-methyl-2-(2H-1,2,3-triazol-2-yl)pyridin-3-yl)methanone] was tested, and the pKi (human orexin 1 receptor) was 6.47, the pKi (human orexin 2 receptor) was under 5.00 and the pKi (rat orexin 1 receptor) was 6.92.
Compound `O=C(c1cccc(F)c1-n1nccn1)N1C[C@H]2C[C@@H](Oc3ccc(Br)cn3)[C@@H]1C2` [Example 106, ((1S,4R,6R)-6-((5-bromopyridin-2-yl)oxy)-2-azabicyclo[2.2.1]heptan-2-yl)(3-fluoro-2-(2H-1,2,3-triazol-2-yl)phenyl)methanone] has a pKi (human orexin 1 receptor) of 8.40, a pKi (human orexin 2 receptor) of 6.36 and a pKi (rat orexin 1 receptor) of 8.52.
`O=C(c1ccc(F)cc1-n1nccn1)N1C[C@H]2C[C@@H](Oc3ccc(Br)cn3)[C@@H]1C2` [Example 107, ((1S,4R,6R)-6-((5-bromopyridin-2-yl)oxy)-2-azabicyclo[2.2.1]heptan-2-yl)(4-fluoro-2-(2H-1,2,3-triazol-2-yl)phenyl)methanone] showed a pKi (human orexin 1 receptor) of 7.59, a pKi (human orexin 2 receptor) of 5.71 and a pKi (rat orexin 1 receptor) of 7.80.
`O=C(c1cc(F)ccc1-n1nccn1)N1C[C@H]2C[C@@H](Oc3ccc(Br)cn3)[C@@H]1C2` [Example 108, ((1S,4R,6R)-6-((5-bromopyridin-2-yl)oxy)-2-azabicyclo[2.2.1]heptan-2-yl)(5-fluoro-2-(2H-1,2,3-triazol-2-yl)phenyl)methanone] showed a pKi (human orexin 1 receptor) of 7.51, a pKi (human orexin 2 receptor) of 6.11 and a pKi (rat orexin 1 receptor) of 8.10.
In the case of `O=C(c1c(F)cccc1-n1nccn1)N1C[C@H]2C[C@@H](Oc3ccc(Br)cn3)[C@@H]1C2` [Example 109, ((1S,4R,6R)-6-((5-bromopyridin-2-yl)oxy)-2-azabicyclo[2.2.1]heptan-2-yl)(2-fluoro-6-(2H-1,2,3-triazol-2-yl)phenyl)methanone], the pKi (human orexin 1 receptor) was 8.30, the pKi (human orexin 2 receptor) was 6.35 and the pKi (rat orexin 1 receptor) was 8.22.
`O=C(c1ccc(F)cc1-c1ncccn1)N1C[C@H]2C[C@@H](Oc3ccc(Br)cn3)[C@@H]1C2` [Example 110, ((1S,4R,6R)-6-((5-bromopyridin-2-yl)oxy)-2-azabicyclo[2.2.1]heptan-2-yl)(4-fluoro-2-(pyrimidin-2-yl)phenyl)methanone] showed a pKi (human orexin 1 receptor) of 7.96, a pKi (human orexin 2 receptor) of 5.92 and a pKi (rat orexin 1 receptor) of 8.22.
`O=C(c1cc(F)ccc1-c1ncccn1)N1C[C@H]2C[C@@H](Oc3ccc(Br)cn3)[C@@H]1C2` [Example 111, ((1S,4R,6R)-6-((5-bromopyridin-2-yl)oxy)-2-azabicyclo[2.2.1]heptan-2-yl)(5-fluoro-2-(pyrimidin-2-yl)phenyl)methanone] was tested, and the pKi (human orexin 1 receptor) was 8.30, the pKi (human orexin 2 receptor) was 6.34 and the pKi (rat orexin 1 receptor) was 8.30.
